Source: PubChem BioAssay (NCI)
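The compound was tested at five concentrations on cells cultured in 96-well plates, with a 48-hour exposure period. GI50 = concentration required for 50% inhibition of growth. TGI marks complete inhibition of growth.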

Experiments:
Experiment in all cases: NCI tumour cell line growth inhibition, 48 h
786-0 renal = test system: 786-0 renal
A498 renal = test system: A498 renal
A549 NSCLC = test system: A549 NSCLC
ACHN renal = test system: ACHN renal
CAKI-1 renal = test system: CAKI-1 renal
COLO 205 colon = test system: COLO 205 colon
DU-145 prostate = test system: DU-145 prostate
EKVX NSCLC = test system: EKVX NSCLC
HCC-2998 colon = test system: HCC-2998 colon
HCT-116 colon = test system: HCT-116 colon
HCT-15 colon = test system: HCT-15 colon
HL-60(TB) leukemia = test system: HL-60(TB) leukemia
HOP-62 NSCLC = test system: HOP-62 NSCLC
HS 578T breast = test system: HS 578T breast
HT29 colon = test system: HT29 colon
IGROV1 ovarian = test system: IGROV1 ovarian
K-562 leukemia = test system: K-562 leukemia
KM12 colon = test system: KM12 colon
LOX IMVI melanoma = test system: LOX IMVI melanoma
M14 melanoma = test system: M14 melanoma
MALME-3M melanoma = test system: MALME-3M melanoma
MCF7 breast = test system: MCF7 breast
MDA-MB-231 breast = test system: MDA-MB-231 breast
MDA-MB-435 = test system: MDA-MB-435
MOLT-4 leukemia = test system: MOLT-4 leukemia
NCI-H226 lung = test system: NCI-H226 lung
NCI-H23 lung = test system: NCI-H23 lung
NCI-H460 lung = test system: NCI-H460 lung
NCI-H522 lung = test system: NCI-H522 lung
NCI/ADR-RES ovarian = test system: NCI/ADR-RES ovarian
OVCAR-3 ovarian = test system: OVCAR-3 ovarian
OVCAR-4 ovarian = test system: OVCAR-4 ovarian
OVCAR-5 ovarian = test system: OVCAR-5 ovarian
OVCAR-8 ovarian = test system: OVCAR-8 ovarian
RPMI-8226 leukemia = test system: RPMI-8226 leukemia
RXF 393 renal = test system: RXF 393 renal
SF-268 CNS = test system: SF-268 CNS
SF-295 CNS = test system: SF-295 CNS
SF-539 CNS = test system: SF-539 CNS
SK-MEL-28 melanoma = test system: SK-MEL-28 melanoma
SK-MEL-5 melanoma = test system: SK-MEL-5 melanoma
SK-OV-3 ovarian = test system: SK-OV-3 ovarian
SN12C renal = test system: SN12C renal
SNB-19 CNS = test system: SNB-19 CNS
SNB-75 CNS = test system: SNB-75 CNS
SR leukemia = test system: SR leukemia
SW-620 colon = test system: SW-620 colon
T-47D breast = test system: T-47D breast
TK-10 renal = test system: TK-10 renal
U251 CNS = test system: U251 CNS
UACC-257 melanoma = test system: UACC-257 melanoma
UACC-62 melanoma = test system: UACC-62 melanoma
UO-31 renal = test system: UO-31 renal
BT-549 breast = test system: BT-549 breast
CCRF-CEM leukemia = test system: CCRF-CEM leukemia
PC-3 prostate = test system: PC-3 prostate
SK-MEL-2 melanoma = test system: SK-MEL-2 melanoma

O=C(N/N=C/c1ccc(F)cc1)c1ccc(C(F)(F)F)nc1Nc1cccc(C(F)(F)F)c1
GI50 (786-0 renal): 0.691 µM
TGI (786-0 renal): 4.62 µM
GI50 (A498 renal): 1.59 µM
TGI (A498 renal): 4.65 µM
GI50 (A549 NSCLC): 2.29 µM
TGI (A549 NSCLC): 6.15 µM
GI50 (ACHN renal): 1.66 µM
TGI (ACHN renal): 4.04 µM
GI50 (CAKI-1 renal): 0.34 µM
TGI (CAKI-1 renal): 2.32 µM
GI50 (COLO 205 colon): 1.56 µM
TGI (COLO 205 colon): 3.47 µM
GI50 (DU-145 prostate): 0.444 µM
TGI (DU-145 prostate): 1.88 µM
GI50 (EKVX NSCLC): 0.713 µM
TGI (EKVX NSCLC): 4.64 µM
GI50 (HCC-2998 colon): 0.902 µM
TGI (HCC-2998 colon): 4.96 µM
GI50 (HCT-116 colon): 0.65 µM
TGI (HCT-116 colon): 2.79 µM
GI50 (HCT-15 colon): 0.351 µM
TGI (HCT-15 colon): 1.87 µM
GI50 (HL-60(TB) leukemia): 0.827 µM
TGI (HL-60(TB) leukemia): 3.72 µM
GI50 (HOP-62 NSCLC): 1.2 µM
TGI (HOP-62 NSCLC): 4.85 µM
GI50 (HS 578T breast): 1.73 µM
TGI (HS 578T breast): 6.87 µM
GI50 (HT29 colon): 2.02 µM
TGI (HT29 colon): 5.23 µM
GI50 (IGROV1 ovarian): 1.68 µM
TGI (IGROV1 ovarian): 4.84 µM
GI50 (K-562 leukemia): 1.07 µM
TGI (K-562 leukemia): 5.02 µM
GI50 (KM12 colon): 1.38 µM
TGI (KM12 colon): 3.76 µM
GI50 (LOX IMVI melanoma): 0.522 µM
TGI (LOX IMVI melanoma): 2.17 µM
GI50 (M14 melanoma): 0.916 µM
TGI (M14 melanoma): 10.1 µM
GI50 (MALME-3M melanoma): 1.28 µM
TGI (MALME-3M melanoma): 4.68 µM
GI50 (MCF7 breast): 1.47 µM
TGI (MCF7 breast): 5.78 µM
GI50 (MDA-MB-231 breast): 1.23 µM
TGI (MDA-MB-231 breast): 4.82 µM
GI50 (MDA-MB-435): 2.66 µM
TGI (MDA-MB-435): 10 µM
GI50 (MOLT-4 leukemia): 1.57 µM
TGI (MOLT-4 leukemia): 5.5 µM
GI50 (NCI-H226 lung): 1.26 µM
TGI (NCI-H226 lung): 4.17 µM
GI50 (NCI-H23 lung): 2.58 µM
TGI (NCI-H23 lung): 11.9 µM
GI50 (NCI-H460 lung): 1.29 µM
TGI (NCI-H460 lung): 3.08 µM
GI50 (NCI-H522 lung): 1.61 µM
TGI (NCI-H522 lung): 4.54 µM
GI50 (NCI/ADR-RES ovarian): 1.28 µM
TGI (NCI/ADR-RES ovarian): 6.58 µM
GI50 (OVCAR-3 ovarian): 0.254 µM
TGI (OVCAR-3 ovarian): 0.713 µM
GI50 (OVCAR-4 ovarian): 0.339 µM
TGI (OVCAR-4 ovarian): 6.55 µM
GI50 (OVCAR-5 ovarian): 1.34 µM
TGI (OVCAR-5 ovarian): 9.12 µM
GI50 (OVCAR-8 ovarian): 1.7 µM
TGI (OVCAR-8 ovarian): 6.62 µM
GI50 (RPMI-8226 leukemia): 1.07 µM
TGI (RPMI-8226 leukemia): 3.34 µM
GI50 (RXF 393 renal): 0.457 µM
TGI (RXF 393 renal): 2.72 µM
GI50 (SF-268 CNS): 0.465 µM
TGI (SF-268 CNS): 2.34 µM
GI50 (SF-295 CNS): 0.744 µM
TGI (SF-295 CNS): 2.69 µM
GI50 (SF-539 CNS): 1.82 µM
TGI (SF-539 CNS): 4.87 µM
GI50 (SK-MEL-28 melanoma): 1.79 µM
TGI (SK-MEL-28 melanoma): 7.92 µM
GI50 (SK-MEL-5 melanoma): 1.62 µM
TGI (SK-MEL-5 melanoma): 4.48 µM
GI50 (SK-OV-3 ovarian): 1.17 µM
TGI (SK-OV-3 ovarian): 4.56 µM
GI50 (SN12C renal): 1.63 µM
TGI (SN12C renal): 7.73 µM
GI50 (SNB-19 CNS): 1.51 µM
TGI (SNB-19 CNS): 7.99 µM
GI50 (SNB-75 CNS): 1.64 µM
TGI (SNB-75 CNS): 10.2 µM
GI50 (SR leukemia): 0.426 µM
TGI (SR leukemia): 2.4 µM
GI50 (SW-620 colon): 0.959 µM
TGI (SW-620 colon): 8.44 µM
GI50 (T-47D breast): 1.02 µM
TGI (T-47D breast): 4.39 µM
GI50 (TK-10 renal): 0.582 µM
TGI (TK-10 renal): 3.86 µM
GI50 (U251 CNS): 0.598 µM
TGI (U251 CNS): 2.98 µM
GI50 (UACC-257 melanoma): 2.23 µM
TGI (UACC-257 melanoma): 6.72 µM
GI50 (UACC-62 melanoma): 1.66 µM
TGI (UACC-62 melanoma): 5.77 µM
GI50 (UO-31 renal): 2.14 µM
TGI (UO-31 renal): 6.69 µM

COc1cccc(CC2C(=O)NC(=O)NC2=O)c1
GI50 (SR leukemia): 39.5 µg/mL

c1ccc(Nc2nnc(CCCCCCCCc3nnc(Nc4ccccc4)o3)o2)cc1
TGI (786-0 renal): > 100 µM
TGI (A498 renal): > 100 µM
TGI (A549 NSCLC): > 100 µM
TGI (ACHN renal): > 100 µM
TGI (BT-549 breast): > 100 µM
TGI (CAKI-1 renal): > 100 µM
TGI (CCRF-CEM leukemia): > 100 µM
TGI (COLO 205 colon): > 100 µM
TGI (DU-145 prostate): > 100 µM
TGI (EKVX NSCLC): > 100 µM
TGI (HCC-2998 colon): > 100 µM
TGI (HCT-116 colon): > 100 µM
TGI (HCT-15 colon): > 100 µM
TGI (HL-60(TB) leukemia): > 100 µM
TGI (HOP-62 NSCLC): > 100 µM
TGI (HT29 colon): > 100 µM
TGI (IGROV1 ovarian): > 100 µM
TGI (K-562 leukemia): > 100 µM
TGI (KM12 colon): > 100 µM
TGI (LOX IMVI melanoma): > 100 µM
TGI (M14 melanoma): > 100 µM
TGI (MALME-3M melanoma): > 100 µM
TGI (MCF7 breast): > 100 µM
TGI (MDA-MB-231 breast): > 100 µM
TGI (MDA-MB-435): > 100 µM
TGI (MOLT-4 leukemia): > 100 µM
TGI (NCI-H226 lung): > 100 µM
TGI (NCI-H23 lung): > 100 µM
TGI (NCI-H460 lung): > 100 µM
TGI (NCI-H522 lung): > 100 µM
TGI (NCI/ADR-RES ovarian): > 100 µM
TGI (OVCAR-3 ovarian): > 100 µM
TGI (OVCAR-4 ovarian): > 100 µM
TGI (OVCAR-5 ovarian): > 100 µM
TGI (OVCAR-8 ovarian): > 100 µM
TGI (PC-3 prostate): > 100 µM
TGI (RXF 393 renal): > 100 µM
TGI (SF-268 CNS): > 100 µM
TGI (SF-295 CNS): > 100 µM
TGI (SF-539 CNS): > 100 µM
TGI (SK-MEL-2 melanoma): > 100 µM
TGI (SK-MEL-28 melanoma): > 100 µM
TGI (SK-MEL-5 melanoma): > 100 µM
TGI (SK-OV-3 ovarian): > 100 µM
TGI (SN12C renal): > 100 µM
TGI (SNB-19 CNS): > 100 µM
TGI (SNB-75 CNS): > 100 µM
TGI (SW-620 colon): > 100 µM
TGI (TK-10 renal): > 100 µM
TGI (U251 CNS): > 100 µM
TGI (UACC-257 melanoma): > 100 µM
TGI (UO-31 renal): > 100 µM
